Assay results taken from patent publication US12552753B2, “Methods and compositions for targeting Tregs using CCR8 inhibitors” (Nanjing Immunophage Biomedical Co., Ltd., priority 2020, dated 2026).
pIC50: −log10 of the molar value.

target: CCR8 (Homo sapiens, UniProt P51685); experiment: Tango assay (Tango-CCR8-Gal4-CHO-K1 cells, CCL1-stimulated, ONE-Glo luminescence); details: Tango Assay IC50, Inhibition of CCR8 Tango cell in vitro
Sequence (P51685 whole entry, the tested form may be a part): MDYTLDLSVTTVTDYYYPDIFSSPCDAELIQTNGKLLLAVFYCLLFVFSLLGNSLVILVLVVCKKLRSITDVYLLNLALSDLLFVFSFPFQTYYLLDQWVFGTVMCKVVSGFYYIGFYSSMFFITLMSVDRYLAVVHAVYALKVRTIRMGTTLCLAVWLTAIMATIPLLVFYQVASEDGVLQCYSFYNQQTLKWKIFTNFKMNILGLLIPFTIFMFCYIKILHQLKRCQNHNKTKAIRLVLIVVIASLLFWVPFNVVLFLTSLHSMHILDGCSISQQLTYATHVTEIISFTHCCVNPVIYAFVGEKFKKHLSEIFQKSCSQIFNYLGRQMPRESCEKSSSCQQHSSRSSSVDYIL

Going from CC(=O)N1CCCC(C(C)NS(=O)(=O)c2ccc(NC(=O)c3ccccc3C)c3ccccc23)C1 (single isomer, unassigned) [Compound 18A, N-(4-(N-(1-(1-acetylpiperidin-3-yl)ethyl)sulfamoyl)naph-thalen-1-yl)-2-methylbenzamide] to Cc1ccccc1C(=O)Nc1ccc(S(=O)(=O)NC(C)C2CCCN(C(=O)CN)C2)c2ccccc12 (single isomer, unassigned) [Compound 156A, N-(4-(N-(1-(1-(2-ammoacetyl)piperidin-3-yl)ethyl)sulfamoyl)naph-thalen-1-yl)-2-methylbenzamide], the pIC50 falls from 7.68 to 7.07 (0.61 log units).

Going from CC(=O)N1CCCC(C(C)NS(=O)(=O)c2ccc(NC(=O)c3ccccc3C)c3ccccc23)C1 (single isomer, unassigned) [Compound 18B, N-(4-(N-(1-(1-acetylpiperidin-3-yl)ethyl)sulfamoyl)naph-thalen-1-yl)-2-methylbenzamide] to Cc1ccccc1C(=O)Nc1ccc(S(=O)(=O)NC(C)C2CCCN(C(=O)CN)C2)c2ccccc12 (single isomer, unassigned) [Compound 156B, N-(4-(N-(1-(1-(2-aminoacetyl)piperidin-3-yl)ethyl)sulfamoyl)naph-thalen-1-yl)-2-methylbenzamide], the pIC50 falls from 7.00 to under 5.00.

First: COC(=O)CN1CCCC(C(C)NS(=O)(=O)c2ccc(NC(=O)c3ccccc3C)c3ccccc23)C1 (single isomer, unassigned) [Compound 19A, methyl 2-(3-(1-(4-(2-methylbenzamido)naph-thalene-1-sulfonamido)ethyl)piper-idin-1-yl)acetate]
Second: COC(=O)CN1CCCCC1C(C)NS(=O)(=O)c1ccc(NC(=O)c2ccccc2C)c2ccccc12 (single isomer, unassigned) [Compound 70A, methyl 2-(2-(1-(4-(2-methylbenzamido)naph-thalene-1-sulfonamido)ethyl)piper-idin-1-yl)acetate]
The pIC50 of the first is 1.39 log units lower: 5.55 for the first, 6.94 for the second. The second is the more potent here.

COC(=O)CN1CCCC(C(C)NS(=O)(=O)c2ccc(NC(=O)c3ccccc3C)c3ccccc23)C1 (single isomer, unassigned) [Compound 19B, methyl 2-(3-(1-(4-(2-methylbenzamido)naph-thalene-1-sulfonamido)ethyl)piper-idin-1-yl)acetate] and COC(=O)CN1CCCCC1C(C)NS(=O)(=O)c1ccc(NC(=O)c2ccccc2C)c2ccccc12 (single isomer, unassigned) [Compound 70B, methyl 2-(2-(1-(4-(2-methylbenzamido)naph-thalene-1-sulfonamido)ethyl)piper-idin-1-yl)acetate] cannot be ordered by pIC50: under 5.00 for the first, under 5.00 for the second.

First: Cc1ccccc1C(=O)Nc1ccc(S(=O)(=O)NC(C)C2CCCCN2C(=O)OC(C)(C)C)c2ccccc12 (single isomer, unassigned) [Compound 67, tert-butyl 2-(1-(4-(2-methylbenzamido)naph-thalene-1-sulfonamido)ethyl)piper-idine-1-carboxylate]
Second: Cc1ccccc1C(=O)Nc1ccc(S(=O)(=O)NC(C)C2CCCN(C(=O)CNC(=O)OC(C)(C)C)C2)c2ccccc12 (single isomer, unassigned) [Compound 155B, tert-butyl (2-(3-(1-(4-(2-methylbenzamido)naph-thalene-1-sulfonamido)ethyl)piper-idin-1-yl)-2-oxoethyl)carbamate]
The pIC50 of the first is higher: 6.55 for the first, under 5.00 for the second.

Going from Cc1ccccc1C(=O)Nc1ccc(S(=O)(=O)NC(C)C2CCCCN2C(=O)OC(C)(C)C)c2ccccc12 (single isomer, unassigned) [Compound 68, tert-butyl 2-(1-(4-(2-methylbenzamido)naph-thalene-1-sulfonamido)ethyl)piper-dine-1-carboxylate] to Cc1ccccc1C(=O)Nc1ccc(S(=O)(=O)NC(C)C2CCCN(C(=O)CN)C2)c2ccccc12 (single isomer, unassigned) [Compound 156C, N-(4-(N-(1-(1-(2-aminoacetyl)piperidin-3-yl)ethyl)sulfamoyl)naph-thalen-1-yl)-2-methylbenzamide], the pIC50 rises from 5.75 to 6.69 (0.94 log units).
